Measured values published in PubChem BioAssay (NCI).
In brackets after ≈: the same amount, converted by molar mass.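 The compound was tested at five concentrations on cells cultured in 96-well plates, with a 48-hour exposure period. At the GI50, growth is halved. TGI: concentration producing complete growth inhibition.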

Experiments:
Experiment in all cases: NCI anticancer screen, dose series, 48 h
NCI/ADR-RES ovarian = system: NCI/ADR-RES ovarian
ACHN renal = system: ACHN renal
SN12C renal = system: SN12C renal
HL-60(TB) leukemia = system: HL-60(TB) leukemia
NCI-H522 lung = system: NCI-H522 lung

SMILES | GI50 (NCI/ADR-RES ovarian) [µg/mL] | TGI (NCI/ADR-RES ovarian) [µg/mL] | GI50 (ACHN renal) [µg/mL] | TGI (ACHN renal) | GI50 (SN12C renal) [µg/mL] | TGI (SN12C renal) | GI50 (HL-60(TB) leukemia) [µg/mL] | TGI (HL-60(TB) leukemia) [µg/mL] | TGI (NCI-H522 lung) [µM]
O=C1NN(C2=NNC3(C(=O)N2)c2ccccc2-c2ccccc23)C(c2ccccc2)=N/C1=C/c1ccc(Cl)cc1 | 53.2 (≈ 97.7 µM) | > 150 | 50.4 (≈ 92.5 µM) | > 150 µg/mL | 53.5 (≈ 98.2 µM) | > 150 µg/mL | 50.1 (≈ 91.9 µM) | > 150 | 
CCOC(=O)c1csc(NC(=O)C(C)N2CCCC2)n1 (stereo unspecified) |  |  |  | > 100 µM |  |  |  |  | 
COC(=O)C(Cc1cn(C(C)n2cc(CC(NC(C)=O)C(=O)OC)c3ccccc32)c2ccccc12)NC(C)=O (stereo unspecified) |  |  |  |  |  | > 100 µM |  |  | > 100
